Measurements as given in patent US20260250318A1, “COMPOSITIONS AND METHODS FOR CROSSING THE BLOOD BRAIN BARRIER” (VOYAGER THERAPEUTICS, INC., priority 2022, published 2026).

test system: brain; assay: Maturation of TTM-001 capsid, NGS enrichment in brain of CD-1 Outbred mice; assay type: in vivo; details: NGS fold-enrichment of TTM-001 matured AAV capsid variants in the brain of CD-1 Outbred mice; intravenous 1.0×10^12 VG/dose; 14 days in life; RNA; relative to non-matured TTM-001 control
From the text: This Example describes maturation of the TTM-001 (SEQ ID NO: 981 (amino acid) and 983 (DNA), comprising SEQ ID NO: 941) and TTM-002 (SEQ ID NO: 982 (amino acid) and 984 (DNA), comprising SEQ ID NO: 2) capsid variants to further enhance their transduction and biodistribution in the central nervous system and evolve the AAV capsid variants to provide further cross-species compatibility. Two approaches were used to mature the TTM-001 and TTM-002 capsid sequences in order to randomize and mutate within and around the peptide insert comprised within loop IV of the capsid variant. […] In the first maturation approach, sets of three contiguous amino acids were randomized across the mutagenesis region in the TTM-001 and TTM-002 sequences, which spanned from position 450 to position 466, numbered according to SEQ ID NO: 981 and 982. In the second maturation approach, mutagenic primers were used to introduce point mutations at a low frequency, scattered across the mutagenesis region in the TTM-001 and TTM-002 sequences ranging from position 449 to position 466, numbered according to SEQ ID NO: 981 and 982. AAV capsid variants arising from each maturation approach for TTM-001 were pooled together and AAV capsid variants arising from each maturation approach for TTM-002 were also pooled together, for subsequent testing and characterization in mice.
The library of pooled matured AAV capsid variants generated from TTM-001 or library of pooled matured AAV capsid variants generated from the TTM-002 matured AAV capsid variant each were intravenously injected into the tail vein of three female CD-1 Outbred mice (Charles River) at a dose of 1.0×10^12 VG/dose. After 14-days in life, the brains of the mice were isolated and RNA was extracted. Following RNA recovery and RT-PCR amplification, a systematic NGS enrichment analysis was performed to calculate the fold enrichment ratio relative to the corresponding TTM-001 or TTM-002 control, and the peptides comprised within the variants were identified. The data for the TTM-001 matured capsid variants is provided in Table 13 and the data for the TTM-002 matured capsid variants is provided in Table 14.

| Sequence | Fold enrichment over TTM-001 |
| --- | --- |
| KTINGSGSPHLVCQNQQT | 2.493 fold |
| KTINGSGSPHLVFQNQQT | 2.376 fold |
| KTINGSGSPHLWSQNQQT | 3.857 fold |
| KTINGSGSPHLWTQNQQT | 3.034 fold |
| KTINGSGSPHLYGQNQQT | 2.277 fold |
| KTINGSGSPHLYMQNQQT | 2.615 fold |
| KTINGSGSPHMYAQNQQT | 2.060 fold |
| KTINGSGSPHMYLQNQQT | 3.061 fold |
| KTINGSGSPHPFLQNQQT | 2.916 fold |
| KTINGSGSPHPLFQNQQT | 2.233 fold |
| KTINGSGSPHPYAQNQQT | 2.598 fold |
| KTINGSGSPHRFKQNQQT | 2.223 fold |
| KTINGSGSPHRFRQNQQT | 3.698 fold |
| KTINGSGSPHRLRQNQQT | 2.998 fold |
| KTINGSGSPHRRLQNQQT | 2.030 fold |
| KTINGSGSPHRRMQNQQT | 2.004 fold |
| KTINGSGSPHRRRQNQQT | 3.754 fold |
| KTINGSGSPHRRSQNQQT | 2.497 fold |
| KTINGSGSPHRSRQNQQT | 2.270 fold |
| KTINGSGSPHRTRQNQQT | 3.190 fold |
| KTINGSGSPHRWAQNQQT | 2.350 fold |
| KTINGSGSPHSALWNQQT | 2.261 fold |
| KTINGSGSPHSCAQNQQT | 2.030 fold |
| KTINGSGSPHSCLLNQQT | 3.127 fold |
| KTINGSGSPHSCLQNQQT | 3.559 fold |
| KTINGSGSPHSCSQNQQT | 3.428 fold |

| Sequence | Fold enrichment over TTM-001 |
| --- | --- |
| KTINGSGSPHSEIVNQQT | 4.931 fold |
| KTINGSGSPHSFARNQQT | 2.367 fold |
| KTINGSGSPHSFITNQQT | 2.868 fold |
| KTINGSGSPHSFLLNQQT | 2.341 fold |
| KTINGSGSPHSFLRNQQT | 3.384 fold |
| KTINGSGSPHSFLVNQQT | 2.624 fold |
| KTINGSGSPHSFRLNQQT | 2.158 fold |
| KTINGSGSPHSFVLNQQT | 3.382 fold |
| KTINGSGSPHSFVRNQQT | 2.110 fold |
| KTINGSGSPHSFVVNQQT | 2.335 fold |
| KTINGSGSPHSGLWNQQT | 2.350 fold |
| KTINGSGSPHSHMENQQT | 2.259 fold |
| KTINGSGSPHSHWQNQQT | 2.676 fold |
| KTINGSGSPHSIFSNQQT | 2.110 fold |
| KTINGSGSPHSIWQNQQT | 5.883 fold |
| KTINGSGSPHSKAARTQT | 2.266 fold |
| KTINGSGSPHSKACASQT | 2.775 fold |
| KTINGSGSPHSKACPLQT | 2.285 fold |
| KTINGSGSPHSKACSAQT | 2.754 fold |
| KTINGSGSPHSKAFARQT | 3.082 fold |
| KTINGSGSPHSKAFPRQT | 3.220 fold |
| KTINGSGSPHSKAFRLQT | 4.849 fold |
| KTINGSGSPHSKAFRPQT | 2.499 fold |
| KTINGSGSPHSKAFTRQT | 2.518 fold |
| KTINGSGSPHSKAGCGQT | 5.341 fold |
| KTINGSGSPHSKAGRGQT | 2.058 fold |

| Sequence | Fold enrichment over TTM-001 |
| --- | --- |
| KTINGSGSPHSKAHRLQT | 2.603 fold |
| KTINGSGSPHSKAHRQQT | 2.117 fold |
| KTINGSGSPHSKAHRSQT | 2.819 fold |
| KTINGSGSPHSKAKHLQT | 2.870 fold |
| KTINGSGSPHSKAKLRQT | 3.976 fold |
| KTINGSGSPHSKAKSRQT | 2.739 fold |
| KTINGSGSPHSKALCRQT | 2.048 fold |
| KTINGSGSPHSKALKRQT | 2.836 fold |
| KTINGSGSPHSKALRFQT | 3.894 fold |
| KTINGSGSPHSKALRRQT | 4.330 fold |
| KTINGSGSPHSKALRSQT | 2.648 fold |
| KTINGSGSPHSKALRYQT | 3.076 fold |
| KTINGSGSPHSKALWRQT | 2.015 fold |
| KTINGSGSPHSKANKSQT | 2.056 fold |
| KTINGSGSPHSKANRMQT | 2.508 fold |
| KTINGSGSPHSKAPNHLT | 2.324 fold |
| KTINGSGSPHSKAQAFRT | 2.022 fold |
| KTINGSGSPHSKAQANRT | 2.255 fold |
| KTINGSGSPHSKAQASKT | 2.546 fold |
| KTINGSGSPHSKAQATRT | 2.019 fold |
| KTINGSGSPHSKAQCLFT | 2.421 fold |
| KTINGSGSPHSKAQCRLT | 2.304 fold |
| KTINGSGSPHSKAQCYVT | 2.261 fold |
| KTINGSGSPHSKAQEELT | 2.162 fold |
| KTINGSGSPHSKAQFLRT | 2.156 fold |
| KTINGSGSPHSKAQFRVT | 2.231 fold |

| Sequence | Fold enrichment over TTM-001 |
| --- | --- |
| KTINGSGSPHSKAQFSLT | 2.000 fold |
| KTINGSGSPHSKAQFSRT | 2.847 fold |
| KTINGSGSPHSKAQFSVT | 2.015 fold |
| KTINGSGSPHSKAQFTLT | 2.277 fold |
| KTINGSGSPHSKAQFVLT | 2.006 fold |
| KTINGSGSPHSKAQFVRT | 2.596 fold |
| KTINGSGSPHSKAQFWVT | 2.050 fold |
| KTINGSGSPHSKAQGFRT | 2.279 fold |
| KTINGSGSPHSKAQGVKT | 2.002 fold |
| KTINGSGSPHSKAQGVRT | 2.188 fold |
| KTINGSGSPHSKAQHLRT | 2.741 fold |
| KTINGSGSPHSKAQHSRT | 3.227 fold |
| KTINGSGSPHSKAQILVT | 2.009 fold |
| KTINGSGSPHSKAQIRLT | 3.279 fold |
| KTINGSGSPHSKAQITLT | 3.177 fold |
| KTINGSGSPHSKAQKRLT | 3.872 fold |
| KTINGSGSPHSKAQKRST | 2.151 fold |
| KTINGSGSPHSKAQLAKT | 2.238 fold |
| KTINGSGSPHSKAQLFKT | 2.385 fold |
| KTINGSGSPHSKAQLGKT | 2.000 fold |
| KTINGSGSPHSKAQLGRT | 2.069 fold |
| KTINGSGSPHSKAQLHRT | 2.618 fold |
| KTINGSGSPHSKAQLILT | 2.358 fold |
| KTINGSGSPHSKAQLIVT | 2.235 fold |
| KTINGSGSPHSKAQLKLT | 2.125 fold |
| KTINGSGSPHSKAQLLKT | 2.985 fold |

| Sequence | Fold enrichment over TTM-001 |
| --- | --- |
| KTINGSGSPHSKAQLPWT | 2.169 fold |
| KTINGSGSPHSKAQLRIT | 2.179 fold |
| KTINGSGSPHSKAQLRKT | 2.689 fold |
| KTINGSGSPHSKAQLRRT | 3.825 fold |
| KTINGSGSPHSKAQLSIT | 2.784 fold |
| KTINGSGSPHSKAQLSKT | 2.035 fold |
| KTINGSGSPHSKAQLTLT | 2.641 fold |
| KTINGSGSPHSKAQLTVT | 4.026 fold |
| KTINGSGSPHSKAQLVKT | 2.376 fold |
| KTINGSGSPHSKAQLVLT | 2.508 fold |
| KTINGSGSPHSKAQLVVT | 3.654 fold |
| KTINGSGSPHSKAQLYRT | 4.108 fold |
| KTINGSGSPHSKAQMKCT | 2.039 fold |
| KTINGSGSPHSKAQMVRT | 2.426 fold |
| KTINGSGSPHSKAQNAKL | 2.486 fold |
| KTINGSGSPHSKAQNAKS | 2.009 fold |
| KTINGSGSPHSKAQNARH | 2.127 fold |
| KTINGSGSPHSKAQNEVH | 2.272 fold |
| KTINGSGSPHSKAQNKRS | 2.214 fold |
| KTINGSGSPHSKAQNLRR | 2.231 fold |
| KTINGSGSPHSKAQNRIR | 2.039 fold |
| KTINGSGSPHSKAQNRKL | 2.084 fold |
